Results on 2 compounds are retold here after US7151108B2, “[3,4-a:3,4-c]carbazole compounds” (Les Laboratories Servier, priority 2002, dated 2006).

The test system of one series is L1210 murine leukaemia. Kind of series: In vitro antiproliferative activity (Microculture Tetrazolium Assay) on L1210. The format is cell-based. To be noted: L1210 cells, exposure 4 doubling periods or 48 hours; read-out: IC50, the concentration of cytotoxic agent that inhibits the proliferation of the treated cells by 50%. As to the method: (§1) Three cell lines were used: • L1210 murine leukaemia • A549 non-small-cell human lung carcinoma • DU145 prostate carcinoma
(§2) L1210 murine leukaemia was used in vitro. The cells are cultured in RPMI 1640 complete culture medium containing 10% foetal calf serum, 2 mM glutamine, 50 units/ml of penicillin, 50 μg/ml of streptomycin and 10 mM Hepes, pH: 7.4. The cells are distributed on microplates and are exposed to the cytotoxic compounds for 4 doubling periods, or 48 hours. The number of viable cells is then quantified by a colorimetric assay, the Microculture Tetrazolium Assay (J. Carmichael et al., Cancer Res.; 47, 936–942 (1987)). The results are expressed as the IC50, the concentration of cytotoxic agent that inhibits the proliferation of the treated cells by 50%.

For series [1], the system named is A549 non-small-cell human lung carcinoma. Nature of the series: In vitro antiproliferative activity (Microculture Tetrazolium Assay) on A549. In kind it is cell-based. The conditions noted are these: A549 cells; read-out: IC50, the concentration of cytotoxic agent that inhibits the proliferation of the treated cells by 50%. As to the method:
as §1, §2

Another series has as its system DU145 prostate carcinoma. Kind of series: In vitro antiproliferative activity (Microculture Tetrazolium Assay) on DU145. The format is cell-based. To be noted: DU 145 cells; read-out: IC50, the concentration of cytotoxic agent that inhibits the proliferation of the treated cells by 50%. As to the method: as §1, §2

One may read the melting point as the temperature of the solid-liquid transition.

Consider `Cn1c(=O)c2c3[nH]c4ccccc4c3c3c(=O)oc(=O)c3c2c1=O`, for which the melting point was 294 °C (dec.).
Consider `Cn1c(=O)c2c3[nH]c4ccccc4c3c3c(=O)n(C)c(=O)c3c2c1=O` [Example 2, 2,5-dimethyl-1H-dipyrrolo[3,4-a:3,4-c]carbazole-1,3,4,6(2H,5H,7H)-tetrone], for which the IC50 in the series on L1210 murine leukaemia was 6.8 µM; in series [1], 4.7 µM; in the series on DU145 prostate carcinoma, 5.4 µM.
